Type in all cases: cell-based
Data set [1] can be described thus: Cytotoxicity against human TZM-b1 cells after 3 days by XTT assay. To be noted: TZM-b1 cells.
A short description of data set [2]: Inhibition of X4-tropic HIV1 3B gp120-mediated entry into human MT2 cells assessed as Inhibition of p24 production incubated overnight followed by compound wash-out measured after 4 days post-infection by multi-cycle neutralization assay. To be noted: Human immunodeficiency virus 1, 3B, MT2, 96 h.
Data set [3] concerns MT2. The data set is described as follows: Cytotoxicity against human MT2 cells after 4 days by XTT assay. To be noted: mt2, 96 h. For orientation: Tetrazolium assays rely on reduction of a dye to a coloured formazan, in cell work by metabolically active cells.
The nature of data set [4]: Inhibition of X4-tropic HIV1 HXB2 gp120-mediated entry into human TZM-b1 cells expressing CD4,CXCR4,CCR5,luciferase and beta-galactosidase after 3 days by single cycle neutralization assay. To be noted: Human immunodeficiency virus 1, HXB2, TZM-b1, 72 h.
In data set [5] the test system is MT2. Put plainly: Cytotoxicity against human MT2 cells at >41 uM after 4 days by XTT assay. The following applies: mt2, 96 h.

Regarding `Cc1nc(C(NC(=O)C(=O)Nc2ccc(Cl)c(F)c2)C2CCCCN2)sc1CCO` (mixture of isomers), it took 61 µM to reach half-maximal cytotoxicity in data set [1] (CC50 at 72 h). Besides, the IC50 (as a rule, the concentration needed to halve the response being measured) worked out at 3.5 µM in data set [2] and 1.98 µM in data set [4]. Further, the CC50 (as a rule, the concentration that lowers cell viability or growth by half) with MT2 [3] was more than 41 µM. In addition, the Activity in the data set with MT2 [5] is given as 10%.

The values above are taken from ChEMBL document CHEMBL2062517, “Design, synthesis, and antiviral activity of entry inhibitors that target the CD4-binding site of HIV-1” (J Med Chem, 2012).
